Results published in PMC6413952, “Discovery of ABBV-4083, a novel analog of Tylosin A that has potent anti-Wolbachia and anti-filarial activity” (PLoS Neglected Tropical Diseases, 2019).
Like-named read-outs stand apart in the source and are kept apart here.

What was measured:
[1] = system: Wolbachia pipientis in Aedes albopictus C6/36 (wAlbB) insect cells; assay: A·WOL Wolbachia-infected Aedes albopictus (C6/36 wAlbB) 7-day cell-based assay, high content imaging
From the text: Compounds were screened for anti-Wolbachia activity in vitro in the A·WOL-validated Wolbachia-infected Aedes albopictus (C6/36 wAlbB) 7-day cell-based assay which utilizes a 384-well format assay with high content imaging (HCI) (Operetta) as described previously.
We began our work by selecting a diverse and representative sample of the AbbVie antibiotics collection (129 compounds) for single-point testing against Wolbachia pipientis in an insect cell line. […] While TylA has a long history of use in multiple animal species, it has never been studied in humans; and its activity against Wolbachia has not previously been reported.

[2] = Rat oral pharmacokinetic study (plasma AUC, C8hr); type: in vivo, Sprague-Dawley rats; details: for AUC*/EC50: potency-weighted AUC
Description: PO doses were administrated by oral gavage, IP doses by intraperitoneal injection to BALB/c mice or Sprague-Dawley rats (Charles River Laboratories, USA). Serial blood samples collected into EDTA anticoagulant for plasma concentration analysis were obtained from each animal after dosing. EDTA preserved plasma samples were extracted by protein precipitation with acetonitrile fortified with internal standards. The supernatant was injected into an HPLC-MS/MS system for separation and quantitation. Detection was accomplished using a triple quadrupole mass spectrometer operated either in electrospray or atmospheric chemical ionization (APCI) mode. The area under the plasma concentration-time curve (AUC) was calculated using the linear trapezoidal rule.

[3] = system: Litomosoides sigmodontis / Wolbachia; assay: Litomosoides sigmodontis microfilariae-positive jird model; type: in vivo, jirds (Meriones unguiculatus)
Description: As described previously, female BALB/c mice or female jirds were infected at 6–8 weeks of age with L. sigmodontis larvae through the bites of Ornithonyssus bacoti mites.
Starting at 14 weeks post infection, microfilariae-positive jirds (n = 7 per group) were dosed PO with ABBV-4083 (150 mg/kg QD) dissolved in 0.5% HPMC/0.02% Tween-80 or vehicle using a volume of 5ml/kg. Microfilariae numbers were assessed through visual inspection of blood samples collected from the saphenous vein at weekly intervals post-dosing. For this, 10 μl of peripheral blood were diluted in 300 μl of Hinkelmann solution (0.5% Eosin Y, 0.5% Phenol, 0.185% Formaldehyde in aqua dest). After 5 minutes of centrifugation at 400g, the supernatant was discarded and the pellet transferred for microscopic quantification of the microfilariae. At 16 weeks post-treatment, jirds were euthanized by an overdose of isoflurane; worms were recovered from the pleural cavity and counted. Remaining intact female adult worms were used to assess embryogenesis and the Wolbachia load. For the latter, genomic DNA (gDNA) was extracted from individual female adult worms and quantification of the Wolbachia ftsZ (wLs-ftsZ) and L. sigmodontis β-actin (Ls-act) gene copy numbers was performed by quantitative real-time PCR (qPCR).
For embryograms, remaining intact female adult worms were individually homogenized in 20% Hinkelmann/80% PBS solution, diluted 1:10 in PBS and quantified by microscopy. Embryonal stages were differentiated as egg, morulae, pretzel and stretched microfilariae.

[4] = system: receptors; assay: Battery of 35 assays assessing general selectivity; type: binding; details: maximum concentration of 10 μM
From the text: (§1) As a preclinical candidate, ABBV-4083 has been evaluated in a variety of in vitro assays assessing preclinical safety. […] In preparation for first-in-human studies, the safety of ABBV-4083 has been extensively evaluated in 28-day GLP general and reproductive toxicity studies. In addition, the synthesis has been adapted to produce GMP quality supplies.

[5] = target: hERG channel (Homo sapiens, UniProt Q12809); assay: Functional hERG channel activity; type: biochemical; details: maximum concentration of 30 μM
From the text: as §1

[6] = Cardiovascular effects in dogs; type: in vivo; details: administered to dogs
From the text: as §1

[7] = In vitro genotoxicity screening assays; type: cell-based
From the text: as §1

[8] = In vitro phospholipidosis assay; type: cell-based
From the text: as §1

[9] = In vitro high-content steatosis screen; type: cell-based
From the text: as §1

[10] = system: Litomosoides, Brugia and Onchocerca; set-up: method as in PMID 30867321; details: cited from earlier work; for anti-Wolbachia efficacy compared with doxycycline: shorter durations of treatment
[11] = system: 77 mammalian receptors, ion channels, enzymes and transporters; set-up: method as in PMID 30867321; details: cited from earlier work
[12] = system: gram(+) and gram(-) microorganisms; set-up: method as in PMID 30867321; details: majority of panel; cited from earlier work

hERG channel, sequence (Q12809 whole entry): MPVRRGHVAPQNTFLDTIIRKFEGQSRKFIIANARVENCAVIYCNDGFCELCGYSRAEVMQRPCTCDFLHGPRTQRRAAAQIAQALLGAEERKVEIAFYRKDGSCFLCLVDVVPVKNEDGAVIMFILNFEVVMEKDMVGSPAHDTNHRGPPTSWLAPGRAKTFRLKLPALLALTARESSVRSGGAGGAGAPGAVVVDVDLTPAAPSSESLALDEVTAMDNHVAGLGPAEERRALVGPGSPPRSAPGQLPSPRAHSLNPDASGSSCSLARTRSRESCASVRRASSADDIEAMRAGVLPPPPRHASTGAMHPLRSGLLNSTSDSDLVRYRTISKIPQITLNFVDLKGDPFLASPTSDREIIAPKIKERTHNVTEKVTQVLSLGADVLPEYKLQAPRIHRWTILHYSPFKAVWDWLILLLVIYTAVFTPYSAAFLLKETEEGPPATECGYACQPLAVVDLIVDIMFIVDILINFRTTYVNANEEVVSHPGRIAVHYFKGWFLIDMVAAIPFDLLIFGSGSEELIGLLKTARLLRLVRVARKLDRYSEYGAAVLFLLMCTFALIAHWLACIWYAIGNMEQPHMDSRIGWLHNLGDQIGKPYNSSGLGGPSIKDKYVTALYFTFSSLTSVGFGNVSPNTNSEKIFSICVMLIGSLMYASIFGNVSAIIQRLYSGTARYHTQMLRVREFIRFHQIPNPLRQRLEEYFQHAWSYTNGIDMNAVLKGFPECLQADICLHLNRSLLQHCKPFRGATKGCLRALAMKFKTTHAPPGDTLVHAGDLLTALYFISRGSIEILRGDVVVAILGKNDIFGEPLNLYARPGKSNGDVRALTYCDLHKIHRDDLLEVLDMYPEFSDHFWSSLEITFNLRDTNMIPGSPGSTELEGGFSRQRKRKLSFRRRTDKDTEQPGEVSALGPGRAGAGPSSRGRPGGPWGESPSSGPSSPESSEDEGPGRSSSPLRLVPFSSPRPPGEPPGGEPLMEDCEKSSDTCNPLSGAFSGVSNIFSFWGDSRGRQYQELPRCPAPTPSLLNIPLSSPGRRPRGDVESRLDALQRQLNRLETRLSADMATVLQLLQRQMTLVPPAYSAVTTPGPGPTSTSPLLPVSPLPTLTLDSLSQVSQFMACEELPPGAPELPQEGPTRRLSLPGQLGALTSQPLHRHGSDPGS

SMILES: CC[C@H]1OC(=O)C[C@@H](O)[C@H](C)[C@@H](O[C@@H]2O[C@H](C)[C@@H](O[C@H]3C[C@@](C)(O)[C@@H](OCc4ccc(F)cc4)[C@H](C)O3)[C@H](N(C)C)[C@H]2O)[C@@H](CC=O)C[C@@H](C)C(=O)/C=C/C(C)=C/[C@@H]1CO[C@@H]1O[C@H](C)[C@@H](O)[C@@H](OC)[C@H]1OC [Compound 5d]
- EC50 ([1]; C6/36, Wolbachia-infected insect cells, geometric mean (N), each N a duplicate measurement): 0.019 nM
- potency improvement (EC50) over TylA ([1]; EC50 lower than parent TylA): 1,500 fold
- C*8hr ([2]; PO rats, C(8hr)/dose): 0.75 ng/mL per mg/kg
- AUC* parent ([2]; PO, Sprague-Dawley rats, AUC* = AUC/dose): 16 ng-hr/ml per mg/kg
- AUC* TylA (metabolite) ([2]; PO, Sprague-Dawley rats, primary metabolite TylA, AUC/dose): <0.6 ng-hr/ml per mg/kg
- potency-weighted 8-hr drug level (C8hr/dose/EC50) relative to TylA ([2]; oral dosing): 2,000 fold
- potency-weighted AUC (AUC*/EC50) relative to TylA ([2]; oral dosing): 2,500 fold
- improvement in plasma drug levels (AUC) over TylA ([2]; oral dosing, rats): 1.7 fold
- metabolic stability of substituent / species observed in plasma ([2]; oral pharmacokinetic study): only parent drug is observed in the plasma
- C*8hr/ EC50 ([2]; potency-weighted 8-hr drug level, PO rats): 39.5 ng/ml/nM per mg/kg
- AUC*/EC50 ([2]; PO rats): 842 ng-hr/ml/nM per mg/kg
- AUC*/EC50 ([2]; rat): 842,000 ng-hr/ml/uM per mg/kg
- Wolbachia depletion ([3]; 150mg/kg 14days QD, Fig 3A): -99,91%
- embryogenesis (embryograms of female worms) ([3]; 150 mg/kg PO QD 14 days, 16 weeks post treatment start): near-complete loss of all embryonic forms including eggs
- circulating microfilariae ([3]; 150 mg/kg PO QD 14 days, from 12 weeks pti until 16 weeks pti): completely cleared
- reduction of Wolbachia levels in recovered female adult worms ([3]; 150 mg/kg PO once daily for 14 days, 16 weeks post-treatment-initiation): > 99.9%
- interactions with receptors in 35 selectivity assays [4]: no significant interactions with any receptors
- inhibition of functional hERG channel activity [5]: did not inhibit
- cardiovascular effects [6]: did not produce significant cardiovascular effects
- genotoxicity [7]: neither mutagenic nor clastogenic
- phospholipidosis [8]: No potential to induce phospholipidosis
- steatosis [9]: did not induce steatosis
- direct microfilaricidal activity [10]: not directly microfilaricidal
- anti-Wolbachia efficacy compared with doxycycline [10]: superior to doxycycline
- anti-Wolbachia efficacy compared with doxycycline ([10]; listed as ABBV-4083): equals or exceeds the efficacy of doxycycline
- interactions across 77 assays [11]: significant interaction was only observed in two assays
- change in susceptibility compared with TylA [12]: little to no change in susceptibility
